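Cells were grown in 96-well plates and exposed to each compound for 48 hours at five concentrations; endpoints were interpolated linearly between bracketing concentrations, or set to the highest concentration if not reached. At the GI50, growth is halved.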 Activity calls are given as the source filed them. No stated cut-off is given here; in the data, active = GI50 up to about 1.1 µM and inactive = higher.
What was measured:
Experiment in all cases: NCI tumour cell line growth inhibition, 48 h
[1] = tested on: 786-0
[2] = tested on: COLO 205
[3] = tested on: HCT-15
[4] = tested on: HOP-62
[5] = tested on: HT-29
[6] = tested on: K562
[7] = tested on: M14
[8] = tested on: MDA-MB-435
[9] = tested on: Malme-3M
[10] = tested on: NCI-H226
[11] = tested on: NCI-H23
[12] = tested on: OVCAR-4
[13] = tested on: PC-3
[14] = tested on: RPMI-8226
[15] = tested on: SK-MEL-28
[16] = tested on: SN12C
[17] = tested on: SNB-19
[18] = tested on: SR
[19] = tested on: UO-31
[20] = tested on: RXF 393

SMILES	GI50 [1]	GI50 [2]	GI50 [3]	GI50 [4]	GI50 [5]	GI50 [6]	GI50 [7]	GI50 [8]	GI50 [9]	GI50 [10]	GI50 [11]	GI50 [12]	GI50 [13]	GI50 [14]	GI50 [15]	GI50 [16]	GI50 [17]	GI50 [18]	GI50 [19]	GI50 [20]
C[NH+]1[C@@H](Cc2ccccc2)C(=O)O[B-]1(F)c1ccccc1 (stereo partly drawn)	> 100 µM (inactive)	> 100 µM (inactive)	> 100 µM	> 100 µM (inactive)	> 100 µM (inactive)	> 100 µM (inactive)	> 100 µM (inactive)	> 100 µM (inactive)	> 100 µM (inactive)	> 100 µM (inactive)	> 100 µM (inactive)	> 100 µM (inactive)	> 100 µM (inactive)	> 100 µM (inactive)	> 100 µM (inactive)	> 100 µM (inactive)	> 100 µM (inactive)	> 100 µM (inactive)	> 100 µM (inactive)	
Cc1ccc(C[N+](C)(C)N)cc1C	> 10 µM (inactive)	> 10 µM (inactive)	> 10 µM	> 10 µM (inactive)	> 10 µM (inactive)	> 10 µM (inactive)	> 10 µM (inactive)	> 10 µM (inactive)	> 10 µM (inactive)	> 10 µM (inactive)	> 10 µM (inactive)	> 10 µM (inactive)	> 10 µM (inactive)	> 10 µM (inactive)	> 10 µM (inactive)	> 10 µM (inactive)	> 10 µM (inactive)		> 10 µM (inactive)	> 10 µM (inactive)
CCCCCCCCCCOC1C(C(C)OCCCN(C)C)OC2OC3(CCCCC3)OC21 (stereo not drawn)	16.5 µM (inactive)	3.48 µM (inactive)	1.36 µM	16.4 µM (inactive)	2.41 µM (inactive)	3.47 µM (inactive)	3.33 µM (inactive)	16.2 µM (inactive)	15.2 µM (inactive)	17.2 µM (inactive)	10.2 µM (inactive)	13.6 µM (inactive)	12.4 µM (inactive)	4.32 µM (inactive)	12.2 µM (inactive)	16.3 µM (inactive)	12.4 µM (inactive)		17.9 µM (inactive)	14.9 µM (inactive)
O[C@]12C=C(c3nccc4c3[nH]c3ccccc34)[C@@H]3CCN(CCCC/C=C\CC1)C[C@@]31CC3/C=C\CCCCN3[C@H]12 (stereo partly drawn)	0.13 µM (active)	0.344 µM (active)	0.288 µM	0.223 µM (active)	0.119 µM (active)	0.367 µM (active)	0.371 µM (active)	0.366 µM (active)	0.509 µM (active)	0.582 µM (active)	0.213 µM (active)	0.454 µM (active)	0.351 µM (active)	0.31 µM (active)	0.615 µM (active)	0.44 µM (active)	1.23 µM (inactive)	0.311 µM (active)	0.199 µM (active)	
Oc1ccc2ccccc2c1/N=N/c1cc(Cl)ccc1Cl	9.14 µM (inactive)	23.3 µM (inactive)	> 50 µM	10 µM (inactive)	19.3 µM (inactive)	20.7 µM (inactive)	14.6 µM (inactive)	> 50 µM (inactive)	24.1 µM (inactive)	49 µM (inactive)	44.5 µM (inactive)	13.9 µM (inactive)	43.5 µM (inactive)	> 50 µM (inactive)	> 50 µM (inactive)	13.3 µM (inactive)	15.8 µM (inactive)		21.3 µM (inactive)	27 µM (inactive)
C[N+]1(C)C2Cc3ccccc3C1Cc1ccccc12	> 100 µM (inactive)	> 100 µM (inactive)	> 100 µM	> 100 µM (inactive)	> 100 µM (inactive)		> 100 µM (inactive)	> 100 µM (inactive)	> 100 µM (inactive)	> 100 µM (inactive)	> 100 µM (inactive)	> 100 µM (inactive)	75.7 µM (inactive)	62.7 µM (inactive)	> 100 µM (inactive)	> 100 µM (inactive)	> 100 µM (inactive)		> 100 µM (inactive)	> 100 µM (inactive)
CC(=O)N1C(=O)c2cc3ccccc3cc21	> 100 µM (inactive)	> 100 µM (inactive)	90.2 µM	63.5 µM (inactive)		> 100 µM (inactive)	> 100 µM (inactive)	> 100 µM (inactive)		> 100 µM (inactive)	95.5 µM (inactive)		> 100 µM (inactive)	> 100 µM (inactive)	> 100 µM (inactive)	> 100 µM (inactive)	> 100 µM (inactive)	> 100 µM (inactive)	> 100 µM (inactive)	
Cc1ccc(/C=N/n2c(=O)[nH]c3ccccc3c2=O)cc1	> 100 µM (inactive)	> 100 µM (inactive)	> 100 µM	> 100 µM (inactive)	> 100 µM (inactive)	> 100 µM (inactive)	> 100 µM (inactive)	> 100 µM (inactive)		> 100 µM (inactive)	> 100 µM (inactive)		> 100 µM (inactive)	> 100 µM (inactive)	> 100 µM (inactive)	> 100 µM (inactive)	> 100 µM (inactive)	> 100 µM (inactive)	> 100 µM (inactive)	
CC(=O)OCC1=C(CCC#N)N2C(=O)C(NC(=O)Cc3cccs3)C2[S+]([O-])C1 (stereo not drawn)	> 100 µM (inactive)	> 100 µM (inactive)	> 100 µM	> 100 µM (inactive)	> 100 µM (inactive)	> 100 µM (inactive)	> 100 µM (inactive)		> 100 µM (inactive)	> 100 µM (inactive)	> 100 µM (inactive)	> 100 µM (inactive)		> 100 µM (inactive)	> 100 µM (inactive)	> 100 µM (inactive)	> 100 µM (inactive)	> 100 µM (inactive)	> 100 µM (inactive)	> 100 µM (inactive)
CC1(C(=O)O)CCOc2ccccc21 (stereo not drawn)	> 100 µM (inactive)	> 100 µM (inactive)	> 100 µM	> 100 µM (inactive)	> 100 µM (inactive)	> 100 µM (inactive)	> 100 µM (inactive)		> 100 µM (inactive)	> 100 µM (inactive)	> 100 µM (inactive)	> 100 µM (inactive)		> 100 µM (inactive)	> 100 µM (inactive)	> 100 µM (inactive)	> 100 µM (inactive)	> 100 µM (inactive)	> 100 µM (inactive)	> 100 µM (inactive)
CC(=O)OCCOCNC(=S)N/N=C/c1ccc2ccccc2n1	39.4 µM (inactive)	26.5 µM (inactive)	29.8 µM	45.1 µM (inactive)	40.6 µM (inactive)	53.2 µM (inactive)	32.5 µM (inactive)		55.5 µM (inactive)	> 100 µM (inactive)	73.1 µM (inactive)	63 µM (inactive)		> 100 µM (inactive)	70.1 µM (inactive)	48 µM (inactive)	> 100 µM (inactive)	24.8 µM (inactive)	31.2 µM (inactive)	46.2 µM (inactive)
Cc1ccc(S(=O)(=O)N(CCNC(=O)c2cccc(O)c2O)c2cc3c4c(c2)Oc2cccc5c2C4(C)c2c(cccc2O3)O5)cc1	> 100 µM (inactive)		> 100 µM	55.6 µM (inactive)	> 100 µM (inactive)	41.1 µM (inactive)	> 100 µM (inactive)	5.85 µM (inactive)	29.2 µM (inactive)	7.74 µM (inactive)	> 100 µM (inactive)	> 100 µM (inactive)	36 µM (inactive)	> 100 µM (inactive)	53.6 µM (inactive)	> 100 µM (inactive)	> 100 µM (inactive)	14.6 µM (inactive)	> 100 µM (inactive)	
Ic1cc2c(cc1C1SCCCS1)OCO2	> 100 µM (inactive)	> 100 µM (inactive)	> 100 µM	> 100 µM (inactive)	> 100 µM (inactive)	> 100 µM (inactive)	> 100 µM (inactive)		> 100 µM (inactive)	> 100 µM (inactive)	64.7 µM (inactive)	> 100 µM (inactive)		> 100 µM (inactive)	> 100 µM (inactive)	> 100 µM (inactive)	> 100 µM (inactive)	> 100 µM (inactive)	> 100 µM (inactive)	> 100 µM (inactive)
CC1OC(OC2C(O[C@H]3CC[C@@]4(C)C(=CC[C@H]5[C@@H]6C[C@@H]7O[C@]8(CC[C@@H](CO)CO8)[C@@H](C)[C@@H]7[C@@]6(C)CC[C@@H]54)C3)OC(CO)C(O)C2OC2OC(CO)C(O)C(O)C2O)C(O)C(O)C1O (stereo partly drawn)	1.9 µM (inactive)	1.88 µM (inactive)	1.91 µM	1.72 µM (inactive)	2.1 µM (inactive)	1.71 µM (inactive)	2.04 µM (inactive)	2.01 µM (inactive)	1.81 µM (inactive)	1.97 µM (inactive)	2.01 µM (inactive)	1.91 µM (inactive)	1.9 µM (inactive)	1.94 µM (inactive)	1.95 µM (inactive)	1.8 µM (inactive)	2.02 µM (inactive)		2.52 µM (inactive)	1.53 µM (inactive)
Fc1ccc(Nc2nc(Cl)c3nc[nH]c3n2)cc1Cl	86.9 µM (inactive)	> 100 µM (inactive)	> 100 µM	61.8 µM (inactive)	> 100 µM (inactive)		> 100 µM (inactive)	> 100 µM (inactive)	> 100 µM (inactive)	> 100 µM (inactive)	79.6 µM (inactive)	> 100 µM (inactive)	> 100 µM (inactive)	> 100 µM (inactive)	> 100 µM (inactive)	> 100 µM (inactive)	> 100 µM (inactive)	86.1 µM (inactive)	4.74 µM (inactive)	
